pIC50: −log10 of the molar value. Like-named read-outs stand apart in the source and are kept apart here.
Molecular target: T1, Menin-MLL (Homo sapiens, UniProt O00255)
T1 construct: His-Menin (M1-L615 end); purchased BIORTUS BP9210
T1 sequence (O00255 1-615 isoform O00255-1): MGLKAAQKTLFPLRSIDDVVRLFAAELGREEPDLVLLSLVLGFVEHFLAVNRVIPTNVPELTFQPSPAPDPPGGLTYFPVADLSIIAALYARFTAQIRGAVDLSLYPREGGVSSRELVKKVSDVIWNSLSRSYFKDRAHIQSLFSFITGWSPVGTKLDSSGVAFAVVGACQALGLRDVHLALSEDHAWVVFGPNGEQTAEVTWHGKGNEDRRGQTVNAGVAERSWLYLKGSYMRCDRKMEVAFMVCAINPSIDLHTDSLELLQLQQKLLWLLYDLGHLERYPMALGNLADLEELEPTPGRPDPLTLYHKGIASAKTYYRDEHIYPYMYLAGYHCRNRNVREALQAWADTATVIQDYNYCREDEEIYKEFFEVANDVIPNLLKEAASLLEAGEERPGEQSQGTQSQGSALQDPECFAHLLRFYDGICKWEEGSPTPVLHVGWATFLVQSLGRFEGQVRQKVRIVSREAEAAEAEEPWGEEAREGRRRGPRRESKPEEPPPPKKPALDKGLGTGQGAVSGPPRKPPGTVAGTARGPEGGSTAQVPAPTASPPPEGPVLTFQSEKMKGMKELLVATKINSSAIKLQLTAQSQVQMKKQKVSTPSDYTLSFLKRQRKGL
Experiment: Inhibitory activity against Menin-MLL binding (fluorescence polarization)
Conditions: 150 nM His-Menin, 15 nM FITC-MLL, 25°C for 60 min
How it was run: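 Fluorescence polarization competition: compound and 150 nM His-tagged menin (residues M1-L615) sit 15 min at 25 °C in pH 7.5 HEPES buffer with NaCl, DTT and BSA; 15 nM FITC-labelled MLL peptide then binds for 60 min. IC50 fitted sigmoidally from mP values, duplicate wells.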

[1] = fluorescence polarization, read-out: Menin-MLL IC50
[2] = Menin-MLL IC50, fluorescence polarization

Row | SMILES | pIC50 [1] | pIC50 [2]
1 | CCN(C(=O)c1cc(F)ccc1-c1cc(C2CN([C@@H](CC[C@@H]3COCCN3)C(C)C)C2)cn2c(C)ncc12)C(C)C [Example 449-2, N-ethyl-5-fluoro-2-(3-methyl-6-{1-[(3S)-4-methyl-1-[(3R)-morpholin-3-yl]pentan-3-yl]azacyclobutan-3-yl}imidazo[1,5-a]pyridin-8-yl)-N-(isopropyl)benzamide] | 7.47 | 
2 | CCN(C(=O)c1cc(F)ccc1-c1cc(C2CCN(CC3CCCCC3)C2)cn2cncc12)C(C)C (stereo not drawn) [Example 44] | 7.53 | 
3 | COCC(C1CCOCC1)N1CC(c2cc(-c3ccc(F)cc3C(=O)N3CCOC[C@H]3C)c3cnc(C)n3c2)C1 (stereo partly drawn) [Example 256] | 6.72 | 
4 | CCN(C(=O)c1cc(F)ccc1-c1cc(C2CN([C@H](CCCN3CCN(S(C)(=O)=O)CC3)C(C)C)C2)cn2c(C)ncc12)C(C)C [Example 397] | 8.38 | 
5 | Cc1nc(F)c2c(-c3ccc(F)cc3C(=O)N3CCOC[C@H]3C)cc(C3CN([C@@H](CO[C@@H]4CCCN(C)C4)C(C)C)C3)cn12 [Example 297-2, (3R)-4-[5-fluoro-2-(1-fluoro-3-methyl-6-{1-[(2R)-3-methyl-1-{[(3R)-1-methylpiperidin-3-yl]oxy}butan-2-yl]azacyclobutan-3-yl}imidazo[1,5-a]pyridin-8yl)benzoyl]-3-methylmorpholine] | 7.87 | 
6 | CCN(C(=O)C(C)C)c1cc(F)ccc1-c1cc(N2CCN(C(=O)C3NC4CCC3CC4)CC2)cn2c(C)ncc12 [Example 71, N-ethyl-N-[5-fluoro-2-(3-methyl-6-{4-[(1R,3S,4S)-2-azabicyclo[2.2.2]octan-3-carbonyl]piperazin-1-yl}imidazo[1,5-a]pyridin-8-yl)phenyl]-2-methylpropionamide] | 7.82 | 
7 | CCN(C(=O)c1cc(F)ccc1-c1cc(C2CN([C@H](C)C3CCN(C(C)=O)CC3)C2)cn2c(C)nc(F)c12)C(C)C [Example 288-1] | 7.96 | 
8 | Cc1nc(F)c2c(-c3ccc(F)cc3C(=O)N3CCOC[C@H]3C)cc(C3CN([C@H](CO[C@H]4CCN(C)C4)C(C)C)C3)cn12 [Example 322, (3R)-4-[5-fluoro-2-(1-fluoro-3-methyl-6-{1-[(2S)-3-methyl-1-{[(3S)-1-methylpyrrolidin-3-yl]oxy}butan-2-yl]azacyclobutan-3-yl}imidazo[1,5-a]pyridin-8yl)benzoyl]-3-methylmorpholine] | 8.70 | 
9 | Cc1nc(F)c2c(-c3ccc(F)cc3C(=O)N3CCOC[C@H]3C)cc(C3CN([C@@H](C)C4CCN(C(=O)[C@@H]5C[C@@H]5F)CC4)C3)cn12 [Example 303] |  | 8.30
10 | CCN(C(=O)c1cc(F)ccc1-c1cc(C2CN([C@H](CCCN3CCN4C(=O)OCC4(CO)C3)C(C)C)C2)cn2c(C)ncc12)C(C)C (stereo partly drawn) [Example 484, 2-(6-{1-[(3R)-6-[8^a-(hydroxymethyl)-3-oxo-hexahydro-1H-[1,3]oxazolo[3,4-a]pyrazin-7-yl]-2-methylhexan-3-yl]azacyclobutan-3-yl}-3-methylimidazo[1,5-a]pyridin-8-yl)-N-ethyl-5-fluoro-N-(isopropyl)benzamide] |  | 8.38
11 | Cc1nc(F)c2c(-c3ccc(F)cc3C(=O)N3CCOC[C@H]3C)cc(C3CN([C@@H](CC[C@@H]4CNCCO4)C(C)C)C3)cn12 [Example 245-2, (3R)-4-[5-fluoro-2-(1-fluoro-3-methyl-6-{1-[(3S)-4-methyl-1-[(2R)-morpholin-2-yl]pentan-3-yl]azacyclobutan-3-yl}imidazo[1,5-a]pyridin-8yl)benzoyl]-3-methylmorpholine] | 7.24 | 
12 | CCS(=O)(=O)N[C@@H]1CC[C@@H](CN2CCC(c3cc(-c4ccc(F)cc4C(=O)N(CC(F)F)C(C)C)c4cnc(C)n4c3)C2)OC1 (stereo partly drawn) [Example 163, N-(2,2-difluoroethyl)-2-[6-(1-{[(2S,5R)-5-ethanesulfonamidooxacyclohexan-2-yl]methyl}pyrrolidin-3-yl)-3-methylimidazo[1,5-a]pyridin-8-yl]-5-fluoro-N-(isopropyl)benzamide] | 7.42 | 

From EP4782453A1 (Beyang Therapeutics Co., Ltd., priority 2023, dated 2025)
